Test results reported in patent publication US20100190813A1, “SPIRO [PIPERIDINE-4- 4' -THIENO [3,2-C] PYRAN] DERIVATIVES AND RELATED COMPOUNDS AS INHIBITORS OF THE SIGMA RECEPTOR FOR THE TREATMENT OF PSYCHOSIS” (priority 2007, published 2010).
Where two headings read alike, the source gives them in different places.

Key:
σ2-receptor = target: T1, σ2-receptor (Rattus norvegicus, UniProt Q5U3Y7); test: Sigma 2 receptor binding (Version B), [3H]-Ditolylguanidin displacement; conditions: for Ki: [3H]-Ditolylguanidin 3 nM, σ1 sites masked with (+)-Pentazocin 500 nM; for inhibition at 1 µM: read-out: Binding σ2 *[Inhibition at 1 μM]
T1 construct: the σ2-Receptorpreparation was prepared from rat liver; from tissue; host or cells: rat liver membrane homogenate
T1 sequence (Q5U3Y7 1-176): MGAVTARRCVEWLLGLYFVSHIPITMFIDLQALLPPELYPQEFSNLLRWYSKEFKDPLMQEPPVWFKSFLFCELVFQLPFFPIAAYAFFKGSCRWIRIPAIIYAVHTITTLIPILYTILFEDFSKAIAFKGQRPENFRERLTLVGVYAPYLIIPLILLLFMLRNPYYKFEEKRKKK
Experimental: In brief the σ2-Receptorpreparation was prepared from rat liver. The livers were homogenized in 5 to 6 times of volume sucrose solution (0.32M) and homogenized. The homogenate was centrifuged at 2900 rpm, 4° C., 10 min). the supernatant was centrifuged again (31000×g, 4° C., 20 min). The pellet was resuspended in TRIS-buffer, incubated for 30 min at room temperature while stirring and centrifuged f (31000×g, 4° C., 20 min). The pellet was resuspended in cold TRIS-buffer pH 8 and homogenized. Then the protein content was measured (approx. 2 mg/mL) and the homogenate frozen at −80° C. for later use.
The radioligand used was [^3H]-Ditolylguanidin in TRIS-buffer pH 8. The σ1-receptor binding sites were masked through (+)-Pentazocin-solution in TRIS-Puffer pH 8.
In a volume of 200 μL 50 μL compound solution of varying concentration, 50 μL (+)-Pentazocin-solution ([…]; resulting in 500 nM in the assay), 50 μL radioligand-solution (12 nM; resulting in 3 nM in the assay) and finally 50 μL of receptor preparation (approx. 2 mg/mL) were given into a well of a microplate equipped with a filter. The plate was closed and stirred for 2 h at room temperature and 500 rpm. Following that the solvents were removed by a harvester through the filter. After rinsing with H2O the filter was measured in a scintillation counter ([^3H]-protocol).

σ1-receptor [1] = target: T2, σ1-receptor (Cavia porcellus, UniProt Q60492); test: Sigma 1 receptor binding (Version B), [3H]-(+)-Pentazocin displacement; set-up: species or system guinea pig
T2 construct: the σ1-receptor preparation was prepared from guinea pig brain; from tissue; host or cells: guinea pig brain membrane homogenate
T2 sequence (Q60492 whole entry): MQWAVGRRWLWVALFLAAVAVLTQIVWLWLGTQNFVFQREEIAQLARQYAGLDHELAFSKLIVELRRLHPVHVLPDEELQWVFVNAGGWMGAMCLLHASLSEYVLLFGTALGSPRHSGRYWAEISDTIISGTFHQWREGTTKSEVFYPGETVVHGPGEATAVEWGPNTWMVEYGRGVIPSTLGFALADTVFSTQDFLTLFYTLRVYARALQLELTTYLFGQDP
Experimental: In brief the σ1-receptor preparation was prepared from guinea pig brain. The brains were homogenized in 5 to 6 times of volume sucrose solution (0.32M) and homogenized. The homogenate was centrifuged at 2900 rpm, 4° C., 10 min). the supernatant was centrifuged again (23500×g, 4° C., 20 min). The pellet was resuspended in Tris-buffer, incubated for 30 min at room temperature and centrifuged f (23500×g, 4° C., 20 min). The pellet was resuspended in cold TRIS-buffer and homogenized. Then the protein content was measured (approx. 1.5 mg/mL) and the homogenate frozen at −80° C. for later use.
The radioligand used was [^3H]-(+)-Pentazocin in TRIS-buffer. In a volume of 200 μL 50 μL TRIS-buffer, 50 μL compound solution of varying concentration, 50 μL radioligand-solution (8 nM; resulting in 2 nM in the assay) and finally 50 μL of receptor preparation (approx. 1.5 mg/mL) were given into a well of a microplate equipped with a filter. The plate was closed and stirred for 2.5 h at 37° C. and 500 rpm. Following that the solvents were removed by a harvester through the filter. After rinsing with H2O the filter was measured in a scintillation counter ([^3H]-protocol).

σ1-receptor [2] = target: T2, σ1-receptor; test: Sigma-1 receptor binding (Version A), [3H]-(+)-pentazocine displacement; set-up: species or system guinea pig
[3] = Binding σ2 Ki [nM], version B, rat liver preparation
[4] = version B, guinea pig brain preparation, [3H]-(+)-Pentazocin 2 nM, read-out: Binding σ1 Ki
[5] = version B, rat liver preparation, read-out: Binding σ2 Ki
[6] = version B, rat liver preparation, compound at 1 μM

For c1cc2c(s1)CCOC21CCN(CC2CCCCC2)CC1 [Example 26, 1-(Cyclohexylmethyl)-6′,7′-dihydrospiro[piperidine-4,4′-thieno[3,2-c]pyrano]], the Ki (σ2-receptor; [3]) was 3.27 ± 0.53 nM, the melting point was 77 °C and the Ki (σ1-receptor [1]; [4]) was 0.66 ± 0.27 nM.

COC1Cc2sc(C(=O)c3ccccc3)cc2C2(CCN(Cc3ccccc3)CC2)O1 (stereo not drawn) [Example 47, 1-(1-Benzyl-6′-methoxy-6′,7′-dihydrospiro[piperidine-4,4′-thieno[3.2-c]pyrano]-2-yl)-1-phenylmethanone] showed a Ki (σ2-receptor; [5]) of 427 ± 163 nM.

For COC1Cc2sc(C=NO)cc2C2(CCN(Cc3ccccc3)CC2)O1 (mixture of isomers) [Example 43, (E/Z)-1-Benzyl-6′-methoxy-6′,7′-dihydrospiro[piperidine-4,4′-thieno[3,2-c]pyrano]-2-carbaldehydroxim], the inhibition at 1 µM (σ2-receptor; [6]) was 2%.

Work on O=C1Cc2sccc2C2(CCN(Cc3ccccc3)CC2)O1 [Example 28, 1-Benzylspiro[piperidine-4,4′-thieno[3.2-c]pyrano]-6′(7′H)-one] yielded an inhibition at 1 µM (σ2-receptor) of 0%.

Molecule c1ccc(CN2CCC3(CC2)OCCc2sccc23)cc1 [Example 19, 1-Benzyl-6′,7′-dihydrospiro[piperidin-4,4′-thieno[3,2-c]pyran]] has a Ki (σ2-receptor; [3]) of 9.6 ± 8.7 nM, a Ki (σ1-receptor [2]; version A, guinea pig brain membranes, [3H]-(+)-pentazocine 3.0 nM, read-out: Binding σ1, Ki) of 2.1 ± 0.4 nM and a Ki (σ1-receptor [1]) of 0.31 ± 0.11 nM.

In the case of COc1ccc(CN2CCC3(CC2)OC(OC)Cc2sccc23)cc1 (stereo not drawn) [Example 14, 6′-Methoxy-1-(4-methoxybenzyl)-6′,7′-dihydrospiro[piperidin-4,4′-thieno[3.2-c]pyran]], the Ki (σ2-receptor; [5]) is reported as 2970 nM and the Ki (σ1-receptor [1]) is reported as 2.24 ± 0.99 nM.

COC1Cc2sccc2C2(CCN(CCCc3ccccc3)CC2)O1 (stereo not drawn) [Example 11] gave a Ki (σ2-receptor; [5]) of 203 nM.

Molecule COC1Cc2sccc2C2(CCN(CCCCc3ccccc3)CC2)O1 (stereo not drawn) [Example 12, 3′-Methoxy-1-(4-phenylbutyl)-6′,7′-dihydrospiro[piperidin-4,4% thieno[3.2-c]pyran]] has a Ki (σ2-receptor; [3]) of 99.2 ± 21.9 nM and a Ki (σ1-receptor [1]; [4]) of 7.67 ± 2.15 nM.

For COC1Cc2sccc2C2(CCN(CCc3ccccc3)CC2)O1 (stereo not drawn) [Example 4, 6′-Methoxy-1-(2-phenylethyl)-6′,7′-dihydrospiro[piperidin-4,4′-thieno[3.2-c]pyran]], the Ki (σ2-receptor; [5]) was 191 nM, the melting point was 94 °C and the Ki (σ1-receptor [1]) was 5.89 ± 5.1 nM.

COC1Cc2sccc2C2(CCN(Cc3ccc(F)cc3)CC2)O1 (stereo not drawn) [Example 13, 1-(4-Flourbenzyl)-6′-Methoxy-6′,7′-dihydrospiro[piperidin-4,4′-thieno[3.2-c]pyran]] gave a Ki (σ2-receptor; [5]) of 425 nM, a Ki (σ1-receptor [2]) of 2.3 ± 0.4 nM and a Ki (σ1-receptor [1]) of 3.39 ± 4.54 nM.

CC(=O)CC1Cc2sccc2C2(CCN(Cc3ccccc3)CC2)O1 (stereo not drawn) [Example 23, 1-(1-Benzyl-6′,7′-dihydrospiro[piperidine-4,4′-thieno[3.2-c]pyrano]-6′-yl)acetone] gave a Ki (σ2-receptor; [5]) of 1610 nM.

Work on c1ccc(CN2CCC3(CC2)OCCc2sccc23)cc1 [Example 26a] yielded a Ki (σ1-receptor [1]; read-out: Binding σ1 Ki, version B, guinea pig brain preparation, [3H]-(+)-Pentazocin 2 nM) of 0.31 ± 0.11 nM.

With COC1Cc2sccc2C2(CCN(CCC(C)C)CC2)O1 (stereo not drawn) [Example 6, 6′-Methoxy-1-(3-methylbutyl)-6′,7′-dihydrospiro[piperidin-4,4′-thieno[3.2-c]pyran]] the Ki (σ2-receptor; [5]) was 285 nM, the Ki (σ1-receptor [2]) was 1.3 ± 0.5 nM and the Ki (σ1-receptor [1]) was 0.96 ± 0.53 nM.

CCCCN1CCC2(CC1)OC(OC)Cc1sccc12 (stereo not drawn) [Example 8, 1-Butyl-6′-methoxy-6′,7′-dihydrospiro[piperidin-4,4′-thieno[3.2-c]pyran]] gave a Ki (σ2-receptor; [5]) of 497 ± 294 nM, a Ki (σ1-receptor [2]) of 5.5 ± 1.2 nM and a Ki (σ1-receptor [1]; [4]) of 4.3 ± 0.44 nM.

For OCCC1Cc2sccc2C2(CCN(Cc3ccccc3)CC2)O1 (stereo not drawn) [Example 27, 2-(1-Benzyl-6′,7′-dihyrospiro[piperidine-4,4′-thieno[3,2-c]pyrano]-6′-yl)ethanol], the inhibition at 1 µM (σ2-receptor; [6]) was 11%.

In the case of COC1Cc2sccc2C2(CCN(Cc3ccccc3)CC2)O1 (stereo not drawn) [Example 3, 1-Benzyl-6′-methoxy-6′,7′-dihydrospiro[piperidin-4,4′-thieno[3.2-c]pyran]], the Ki (σ2-receptor; [5]) is reported as 1260 nM, the melting point is reported as 78 °C and the Ki (σ1-receptor [2]) is reported as 2.4 ± 0.3 nM. For the same molecule, the Ki (σ1-receptor [1]; [4]) was 0.32 ± 0.16 nM.
